Assay results from US20260070924A1, “INDAZOLE MACROCYCLES AND THEIR USE” (BLOSSOMHILL THERAPEUTICS, INC., priority 2022, published 2026).

Assays:
Assay type in all cases: cell-based
[1] = test system: Phospho-S6 Ribosomal Protein (S235/236); test: Inhibition of kinase phosphorylation by Western Blot in MOLM-13; details: MOLM-13 cells, 4 hour-incubation; read-out: pS6 MOLM-13 IC50
Method: (§1) Inhibition of kinase phosphorylation assay was performed by Western Blot using MV-4-11 and MOLM13 cell lines. Cells were plated in 24 well plates at 1 million cells per well and then treated with compounds at different concentrations, starting at 100 nM, 1:4 titration with DMSO as control. After 4 hour-incubation, cells were washed once with ice-cold PBS, and lysed in RIPA lysis buffer with protease and phosphatase inhibitors. The cell lysates were then sonicated and spun down, and 40 μg of proteins were separated by sodium dodecyl sulfate electrophoresis on a 4 to 12% Bis-Tris polyacrylamide gel and transferred onto nitrocellulose membranes using Bio-Rad Trans-Blot Turbo Transfer System (Bio-Rad). Blocking was performed using 3% BSA or 5% Non-fat dry milk (Fisher Scientific) in TBST (Tris-buffered saline containing 0.05% of Tween 20) (Bio-Rad Laboratories, Inc.). The membranes were incubated overnight with anti-phospho-FLT3 (Y589/Y591) (CST #60413), anti-phospho-STAT5 (Y694) (CST #4322), anti-Phospho-p44/42 MAPK (Erk1/2) (T202/Y204) (CST #9101), anti-Phospho-S6 Ribosomal Protein (S235/236) (CST #4858) and anti-β-Actin (CST #8457) each diluted 1000 times in 3% BSA in TBST. Membranes were washed with TBST and then incubated at room temperature for 1 hour with HRP-labeled anti-rabbit IgG polyclonal antibody (CST #7074) diluted 1000 times in 3% BSA. After TBST washing, blots were developed with a chemiluminescence system (SuperSignal West Femto Maximum Sensitivity Substrate, Pierce #34095). Luminescence was detected by LI-COR Odyssey M imaging system and luminescence intensity were quantified using Empiria Studio 2.2 software. Data was analyzed using GraphPad Prism 9 (GraphPad Software, San Diego, CA) to obtain IC50 values.

[2] = test system: phospho-STAT5 (Y694); test: as above; details: MOLM-13 cells, 4 hour-incubation; read-out: pSTAT5 MOLM-13 IC50
Method: as §1

[3] = test system: BCLAF1 exon10-12/exon 10-11; test: Alternative splicing ratio by qPCR in MOLM-13; details: DMSO = 1.00
Method: Alternative splicing ratio of RNA transcripts was measured by qPCR in MV-4-11 and MOLM-13 cell lines. Cells were plated in 24 well plates at 1 million cells per well and then treated with compounds at different concentrations, with DMSO only as control. After 8-hour-incubation, cells were harvested and washed once with ice-cold PBS, and lysed in RNA lysis buffer (Invitrogen). Total RNA was extracted using the RNA Purification Kit (Invitrogen). 2 μg of RNA was used for cDNA synthesis using cDNA synthesis kit (ThermoFisher) and 20 ng of cDNA was used for qPCR using PROFLEX 96-Well PCR System (ThermoFisher).
Primers with the following sequences were used for the measurement: • BCLAF1 exon10-12/exon 10-11 (TaqMan, IDT)

[4] = test system: MOLM-13 cell line; test: Alternative splicing events by RNAseq in MOLM-13; details: 8 hour-incubation
Method: Alternative splicing events were measured by RNAseq in MOLM-13 cell line. Cells were plated in 24 well plates at 1 million cells per well and then treated with compounds at different concentrations, with DMSO as control. After 8 hour-incubation, cells were harvested and washed once with ice-cold PBS, and lysed in RNA lysis buffer (Invitrogen). Total RNA was extracted using the RNA Purification Kit (Invitrogen). RNAseq was performed by Biomiga (San Diego).

- IC50 [1]: 2.47 nM
- IC50 [2]: 0.72 nM
Structure (SMILES): CCc1nn(C)c2c1/C=C/c1n[nH]c3ccc(cc13)-c1cnn(C)c1OCCN(C)C2=O [Ex. 6, (17E)-16-ethyl-8,12,14-trimethyl-2,11,12,14-tetrahydro-8H-3,5-ethenotripyrazolo[3,4-f:3′,4′-j:4″,3″-n][1,4]oxazacyclopentadecin-13(10H)-one]
- Alternative Splicing Ratio BCLAF1 Ex. 10-12/Ex. 10-11 ([3]; MOLM-13, 30 nM): 1.80
- Alternative Splicing Ratio BCLAF1 Ex. 10-12/Ex. 10-11 ([3]; MOLM-13, 100 nM): 5.76
- Alternative Splicing Ratio BCLAF1 Ex. 10-12/Ex. 10-11 ([3]; MOLM-13, 300 nM): 6.89
- AS Events A3′SS (alternative 3′ splice site) ([4]; MOLM-13, 30 nM): 371
- AS Events A5′SS (alternative 5′ splice site) ([4]; MOLM-13, 30 nM): 289
- AS Events MXE (mutually exclusive exons) ([4]; MOLM-13, 30 nM): 187
- AS Events RI (retained intron) ([4]; MOLM-13, 30 nM): 536
- AS Events SE (skipped exon) ([4]; MOLM-13, 30 nM): 2054
- AS Events A3′SS (alternative 3′ splice site) ([4]; MOLM-13, 100 nM): 559
- AS Events A5′SS (alternative 5′ splice site) ([4]; MOLM-13, 100 nM): 443
- AS Events MXE (mutually exclusive exons) ([4]; MOLM-13, 100 nM): 325
- AS Events RI (retained intron) ([4]; MOLM-13, 100 nM): 841
- AS Events SE (skipped exon) ([4]; MOLM-13, 100 nM): 4568
- AS Events A3′SS (alternative 3′ splice site) ([4]; MOLM-13, 300 nM): 722
- AS Events A5′SS (alternative 5′ splice site) ([4]; MOLM-13, 300 nM): 590
- AS Events MXE (mutually exclusive exons) ([4]; MOLM-13, 300 nM): 355
- AS Events RI (retained intron) ([4]; MOLM-13, 300 nM): 1184
- AS Events SE (skipped exon) ([4]; MOLM-13, 300 nM): 5093
